Measured values reported in the NIST ThermoML archive (doi:10.1016/j.jct.2008.07.011).
Numbers after ± are expanded uncertainties.

Test: osmotic coefficient (dimensionless); mn = molality of the nth substance listed, in mol/kg
Conditions: Liquid, vapor pressure osmometry

CCC[n+]1ccn(C)c1.[Br-] [1-methyl-3-propylimidazolium bromide] + O
osmotic coefficient
Conditions	298.15 K	308.15 K	318.15 K	328.15 K
m1 = 0.0071	0.942 ± 0.038	0.928 ± 0.037	0.961 ± 0.038	0.947 ± 0.038
m1 = 0.0141	0.917 ± 0.037	0.925 ± 0.037	0.951 ± 0.038	0.95 ± 0.038
m1 = 0.0243	0.903 ± 0.036	0.902 ± 0.036	0.925 ± 0.037	0.924 ± 0.037
m1 = 0.0338	0.894 ± 0.036	0.904 ± 0.036	0.92 ± 0.037	0.926 ± 0.037
m1 = 0.0462	0.89 ± 0.036	0.892 ± 0.036	0.91 ± 0.037	0.91 ± 0.037
m1 = 0.0667	0.865 ± 0.035	0.875 ± 0.035	0.898 ± 0.036	0.896 ± 0.036
m1 = 0.0898	0.855 ± 0.035	0.864 ± 0.035	0.874 ± 0.035	0.875 ± 0.035
m1 = 0.1081	0.839 ± 0.034	0.851 ± 0.034	0.867 ± 0.035	0.864 ± 0.035
m1 = 0.1529	0.82 ± 0.033	0.835 ± 0.034	0.857 ± 0.035	0.851 ± 0.034
m1 = 0.194	0.807 ± 0.033	0.816 ± 0.033	0.836 ± 0.034	0.842 ± 0.034
m1 = 0.2403	0.798 ± 0.033	0.802 ± 0.033	0.812 ± 0.033	0.818 ± 0.033
m1 = 0.3018	0.783 ± 0.032	0.792 ± 0.033	0.805 ± 0.033	0.813 ± 0.033
m1 = 0.3677	0.762 ± 0.032	0.772 ± 0.032	0.793 ± 0.033	0.794 ± 0.033
m1 = 0.4338	0.755 ± 0.031	0.761 ± 0.032	0.776 ± 0.032	0.787 ± 0.032
m1 = 0.5359	0.742 ± 0.031	0.749 ± 0.031	0.753 ± 0.031	0.76 ± 0.032
m1 = 0.8595	0.706 ± 0.03	0.72 ± 0.03	0.728 ± 0.031	0.735 ± 0.031
m1 = 1.029	0.702 ± 0.03	0.714 ± 0.03	0.717 ± 0.03	0.724 ± 0.031
m1 = 1.604	0.674 ± 0.029	0.696 ± 0.03	0.702 ± 0.03	0.704 ± 0.03
m1 = 2.104	0.676 ± 0.029	0.69 ± 0.03	0.694 ± 0.03	0.701 ± 0.03
m1 = 2.705	0.671 ± 0.029	0.683 ± 0.03	0.701 ± 0.03	0.709 ± 0.03

CCCCCn1cc[n+](C)c1.[Br-] [1-pentyl-3-methylimidazolium bromide] + O
osmotic coefficient
Conditions	298.15 K	308.15 K	318.15 K	328.15 K
m1 = 0.0179	0.911 ± 0.037	0.987 ± 0.039	0.94 ± 0.038	1.01 ± 0.04
m1 = 0.025	0.925 ± 0.037	0.964 ± 0.039	0.924 ± 0.037	0.996 ± 0.04
m1 = 0.0301	0.906 ± 0.036	0.933 ± 0.037	0.912 ± 0.037	0.982 ± 0.039
m1 = 0.0518	0.878 ± 0.035	0.892 ± 0.036	0.895 ± 0.036	0.955 ± 0.038
m1 = 0.0722	0.861 ± 0.035	0.872 ± 0.035	0.882 ± 0.036	0.92 ± 0.037
m1 = 0.0904	0.852 ± 0.034	0.856 ± 0.035	0.871 ± 0.035	0.91 ± 0.037
m1 = 0.1155	0.826 ± 0.034	0.843 ± 0.034	0.857 ± 0.035	0.852 ± 0.034
m1 = 0.1697	0.808 ± 0.033	0.811 ± 0.033	0.831 ± 0.034	0.843 ± 0.034
m1 = 0.2113	0.793 ± 0.033	0.798 ± 0.033	0.816 ± 0.033	0.827 ± 0.034
m1 = 0.2308	0.785 ± 0.032	0.786 ± 0.032	0.813 ± 0.033	0.811 ± 0.033
m1 = 0.3311	0.745 ± 0.031	0.76 ± 0.032	0.776 ± 0.032	0.782 ± 0.032
m1 = 0.3787	0.726 ± 0.031	0.745 ± 0.031	0.762 ± 0.032	0.766 ± 0.032
m1 = 0.4716	0.704 ± 0.03	0.727 ± 0.031	0.749 ± 0.031	0.754 ± 0.031
m1 = 0.5627	0.694 ± 0.03	0.709 ± 0.03	0.72 ± 0.03	0.734 ± 0.031
m1 = 0.6532	0.679 ± 0.029	0.689 ± 0.03	0.697 ± 0.03	0.706 ± 0.03
m1 = 0.7246	0.669 ± 0.029	0.682 ± 0.03	0.692 ± 0.03	0.697 ± 0.03
m1 = 0.8353	0.657 ± 0.029	0.666 ± 0.029	0.68 ± 0.029	0.681 ± 0.029
m1 = 1.026	0.618 ± 0.028	0.637 ± 0.029	0.632 ± 0.028	0.649 ± 0.029
m1 = 1.509	0.583 ± 0.028	0.588 ± 0.028	0.594 ± 0.028	0.608 ± 0.028
m1 = 2.005	0.561 ± 0.027	0.565 ± 0.027	0.568 ± 0.027	0.594 ± 0.028

CCCCCCn1cc[n+](C)c1.[Br-] [3-hexyl-1-methyl-1H-imidazolium bromide] + O
osmotic coefficient
Conditions	298.15 K	308.15 K	318.15 K	328.15 K
m1 = 0.0155	0.876 ± 0.035	0.889 ± 0.036	0.91 ± 0.037	0.935 ± 0.037
m1 = 0.021	0.869 ± 0.035	0.87 ± 0.035	0.876 ± 0.035	0.911 ± 0.037
m1 = 0.0305	0.854 ± 0.035	0.858 ± 0.035	0.866 ± 0.035	0.869 ± 0.035
m1 = 0.0467	0.835 ± 0.034	0.838 ± 0.034	0.848 ± 0.034	0.861 ± 0.035
m1 = 0.0633	0.815 ± 0.033	0.811 ± 0.033	0.816 ± 0.033	0.821 ± 0.033
m1 = 0.0819	0.761 ± 0.032	0.763 ± 0.032	0.8 ± 0.033	0.815 ± 0.033
m1 = 0.121	0.741 ± 0.031	0.742 ± 0.031	0.775 ± 0.032	0.79 ± 0.032
m1 = 0.158	0.703 ± 0.03	0.732 ± 0.031	0.754 ± 0.031	0.76 ± 0.032
m1 = 0.1845	0.708 ± 0.03	0.727 ± 0.031	0.742 ± 0.031	0.75 ± 0.031
m1 = 0.2503	0.67 ± 0.029	0.69 ± 0.03	0.702 ± 0.03	0.719 ± 0.03
m1 = 0.3312	0.65 ± 0.029	0.659 ± 0.029	0.672 ± 0.029	0.67 ± 0.029
m1 = 0.4111	0.602 ± 0.028	0.605 ± 0.028	0.625 ± 0.028	0.63 ± 0.028
m1 = 0.5114	0.554 ± 0.027	0.585 ± 0.028	0.589 ± 0.028	0.592 ± 0.028
m1 = 0.5898	0.54 ± 0.027	0.546 ± 0.027	0.555 ± 0.027	0.569 ± 0.027
m1 = 0.6829	0.517 ± 0.027	0.513 ± 0.027	0.537 ± 0.027	0.544 ± 0.027
m1 = 0.7428	0.488 ± 0.027	0.489 ± 0.027	0.509 ± 0.027	0.514 ± 0.027
m1 = 1.119	0.384 ± 0.027	0.397 ± 0.027	0.413 ± 0.027	0.429 ± 0.027
m1 = 1.686	0.312 ± 0.027	0.322 ± 0.027	0.352 ± 0.027	0.362 ± 0.027
m1 = 2.398	0.271 ± 0.028	0.292 ± 0.028	0.309 ± 0.027	0.328 ± 0.027
